Assay results published in patent US12228568B2, “Redox-labile fluorescent probes and their surface immobilization methods for the detection of metabolites” (The Regents of the University of California, priority 2018, dated 2025).
Where a SMILES comes first, the peptide text is derived from it. The star is where a group is joined. Biotin = O=C1N[C@H]2[C@H](CS[C@H]2CCCCC(=O)*)N1; X1 = O=C(c1c(O)ccc2c1oc1cc(=O)ccc-1[n+]2[O-])*

Experiments:
[1] = Surface-based lactate assay on immobilized resazurin probes (coupled LDH/diaphorase reactions); format: biochemical; settings: surface-immobilized probe; sodium lactate, NAD+, LDH and diaphorase
Text: We then evaluated the BRz and APRz probes for their performance in lactate detection experiments. BRz was immobilized onto the surface through ssDNA-streptavidin conjugates. Similarly, dibenzocyclooctyne-modified ssDNA enabled surface grafting of APRz molecules (FIG. 3, panel a).^[10] The resazurin-modified surfaces were exposed to a solution containing a mixture of sodium lactate, nicotinamide adenine dinucleotide (NAD+), lactate dehydrogenase (LDH) and diaphorase. In this case, the enzyme reaction cascade shown in FIG. 1, panel a translates the lactate quantity to fluorescence readouts.
A 16-well PDMS slab was placed onto a microscope glass slide, on which single strand DNA oligomers are patterned in 20 μm stripes. The volume of each well is 50 μL and it is equipped with at least eight sets of DNA barcode strips. […]
Subsequently, each well was washed with PBST for three times. At this stage, the APRz probe was immobilized to the surface and ready to use.
To obtain the standard curve for lactate quantification, 20 μL of NAD+ solution (1 mM in PBST), 1 μL of LDH solution (1 kU in ammonium sulfate buffer), 1 μL of diaphorase solution (1 kU/mL in PBS) and 20 μL of lactate solution (various concentrations in PBST) was added to each well and the device was incubated at room temperature for one hour. […] The surface fluorescence intensity was then measured by a microscanner. […]

[2] = Stability of modified resazurin probes; format: physicochemical; settings: solution phase, 8 μM in PBS
Method: FIG. 7. Synthesis of the extended CRz bearing an aliphatic carboxyl group (CPRz). This carboxyl group could be readily converted to an NHS ester using standard coupling procedures. However, the ss-DNA-CPRz was not stable, and went through spontaneous self-reduction even at −20° C.
FIG. 10. Stability of Biotin-modified CRz (BRz) in solution phase. 8 μM in PBS. At 6 hrs, all the BPRz was reduced through adding 10 units of Diaphorase and 1 mM of NADH in PBS.
FIG. 11. Stability of the APRz probe (8 μM in PBS). The “reduced” signal was obtained through adding 10 units of Diaphorase and 1 mM of NADH to the APRz solution followed by a 1 hour incubation.
In order to be adapted to the SCBC platform, the probe immobilization process should be compatible with the single-stand DNA hybridization process.^[5] However, the N-oxide group on CRz confers strong redox lability. Consequently, the attempt of conjugating the amine-modified CRz to a single strand DNA (ssDNA) was unsuccessful.

[3] = Interference of intracellular reducing agents with APRz detection; format: biochemical; settings: Glutamine 6 mM; Glucose 6 mM; Ascorbate 100 nM; Glutathione 6 mM; APRz 8 µM in PBS
Text: FIG. 15. Comparison of the reaction kinetics using different reducing agents.
A potential concern of employing the enzymatic mechanism for lactate quantitation was the specificity of the method. The complex intracellular contents always pose strong challenges on such redox-based methods. […] In order to evaluate the combined interference from all intracellular components, we further performed validation using GBM39 cell lysates.

[4] = tested on: GBM39 cells; experiment: SCBC single cell metabolic/proteomic measurements; format: cell-based, human; settings: for glucose uptake / lactate production: erlotinib 1 μM 24 h or oligomycin A 0.1 μM 3 h vs DMSO
Text: We then sought to adapt the lactate assay for single cell level quantitation. The surface-based lactate assay was incorporated onto the SCBC platform, which consisted of a two-layer elastomer microfluidics device coupled to a DNA barcoded glass slide.^[5, 7] The device contained 384 programmable microchambers where cells were loaded and lysed for analysis. Each microchamber was equipped with a set of DNA barcode stripes, which served as a scaffold for multiplex measurements (FIG. 18). We quantified glucose uptake, lactate production and a panel of signaling proteins from GBM39 single cells. GBM39 is a human glioblastoma cell line that harbors a mutated form of the epidermal growth factor receptor (EGFR), which drives cell proliferation. Cells were treated with 1 μM of erlotinib (EGFR inhibitor), 0.1 μM of oligomycin A (ATPase inhibitor) or DMSO (control) before analysis.
GBM 39 primary neurospheres were provided by Prof. C. David James (UCSF, San Francisco, U.S.A.) and HK301 cells were provided by Prof. Harley Kornblum (UCLA, Los Angeles, U.S.A). Cells were cultured in Dulbecco's Modified Eagle Media Nutrient Mix F-12 (DMEM/F12, Thermo) supplemented with B27 (Invitrogen), Glutamax (Thermo), heparin (1 μg/mL, Sigma), Epidermal Growth Factor (EGF, […], Sigma), Fibroblast Growth Factor (FGF, 20 ng/mL, Sigma) and 100 U/mL of penicillin and streptomycin (Thermo) in a humidified 5% CO2 (v/v) incubator at 37° C. […] For the erlotinib group, the GBM 39 cells were treated for 24 h while for the oligomycin group, the cells were treated for 3 h. Afterwards, the treated cells were processed for tests.
For SCBC measurements, the as-prepared single cells were resuspended in warm media with 10 μg/mL of Gluc-Bio at 1 M cells/mL. After incubated at 37° C. for 30 min and washed with cold PBS for 3 times, the collected cell pellet was resuspended in serum-free, biotin-free media which contained 25 U/mL lactate dehydrogenase (LDH) and 25 U/mL diaphorase. The concentration of the as-prepared single cell suspension was 1 M cells/mL.
The single cell barcode chips (SCBC) were fabricated according to well-established procedures. DNA-encoded antibody library (DEAL) was grafted onto the surface through DNA hybridization to afford capture antibody arrays. The DNA-APRz conjugate can also be incorporated onto the surface barcode through the same procedure. […] 2) the lysis buffer was prepared to contain 2 mM of NAD^+.
The SCBC readouts from the microchambers with single cells were collected to form a data table. Each row of the table corresponds to a measurement of a panel of functional proteins from a single cell and each column contains digitized fluorescence intensities that provide readout of the levels of each of the assayed proteins. […]. Protein-protein Spearman's rank correlation coefficients were calculated. Bonferroni corrected p-value was used to define the statistical significance level for the entire panel and only those significant correlations were shown in the networks. Analyte-analyte correlation networks were generated by running the calculation through all the analyte pairs in panel.

SMILES | fluorescence increase within the assay duration [3] | reaction kinetics of APRz reduction by reducing agent [3] | glucose uptake [4] | lactate production [4] | other results
NCCCC[C@H](NC(=O)CNC(=O)CCCC[C@@H]1SC[C@@H]2NC(=O)N[C@@H]21)C(=O)NCC(=O)N[C@@H](CCCCN)C(=O)NCC(=O)N[C@@H](CCCCN)C(=O)NCC(=O)N[C@@H](CCCCNC(=O)c1c(O)ccc2c1oc1cc(=O)ccc-1[n+]2[O-])C(=O)NCC(N)=O [BRz] (Biotin-GKGKGKGK(X1)G-NH2) |  |  |  |  | increase of fluorescence intensity after lactate conversion [1]: unsatisfactory fluorescence increase; stability of probe [2]: superior stability
O=C1O[C@H]([C@@H](O)CO)C(O)=C1O [ascorbic acid] | insignificant fluorescence increase | very slow reaction kinetics |  |  | 
C#Cc1cccc(Nc2ncnc3cc(OCCOC)c(OCCOC)cc23)c1 [erlotinib] |  |  | dramatically decreased | dramatically decreased | phosphorylation levels on EGFR as well as downstream signaling proteins ([4]; erlotinib 1 μM 24 h vs DMSO): significant down regulation
N[C@@H](CCC(=O)N[C@@H](CS)C(=O)NCC(=O)O)C(=O)O [glutathione] | insignificant fluorescence increase | very slow reaction kinetics |  |  | 
CC[C@H]1/C=C/C=C/C[C@@H](C)[C@H](O)[C@@](C)(O)C(=O)[C@@H](C)[C@H](O)[C@@H](C)C(=O)[C@@H](C)[C@H](O)[C@@H](C)/C=C/C(=O)O[C@@H]2[C@H](C)[C@H](CC1)O[C@]1(CC[C@H](C)[C@H](C[C@@H](C)O)O1)[C@H]2C [oligomycin, oligomycin A] |  |  | slightly higher | significantly increased | phosphoproteins downstream of the EGFR signaling pathway ([4]; oligomycin A 0.1 μM 3 h vs DMSO): suppress
